Patent US12297192B2, “Crystal form of pyrimidine sulfonamide compound and preparation method therefor” (WUXI BIOCITY BIOPHARMACEUTICS CO., LTD., priority 2019, dated 2025)
“And” between values parts separate entries of the source, which are not always exact repeats. Equal entries are not always repeated. Where a SMILES comes first, the peptide text is derived from it. [ ]: non-standard residue; d: D form.

Experiments:
human ETA receptors = target: T1, human ETA receptors (Homo sapiens, UniProt P25101); assay: In vitro antagonistic effect on human ETA receptors (Ca2+ fluorescence, SK-N-MC cells); format: cell-based; details: SK-N-MC cells, 1 nM endothelin-1
T1 construct: endogenously expressed human ETA receptors in SK-N-MC cells; host or cells: SK-N-MC cells
T1 sequence (P25101 21-427): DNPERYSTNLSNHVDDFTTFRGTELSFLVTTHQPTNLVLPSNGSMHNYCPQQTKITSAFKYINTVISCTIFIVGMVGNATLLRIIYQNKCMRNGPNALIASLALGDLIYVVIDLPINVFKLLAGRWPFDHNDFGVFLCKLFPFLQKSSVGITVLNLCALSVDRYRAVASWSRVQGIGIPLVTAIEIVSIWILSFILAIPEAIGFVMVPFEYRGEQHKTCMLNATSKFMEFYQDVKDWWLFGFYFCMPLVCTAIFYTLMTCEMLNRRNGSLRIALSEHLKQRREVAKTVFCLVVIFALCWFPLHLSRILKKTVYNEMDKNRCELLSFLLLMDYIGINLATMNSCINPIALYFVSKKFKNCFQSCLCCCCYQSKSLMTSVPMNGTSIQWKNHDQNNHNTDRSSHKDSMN
Description: The antagonistic activity of the compounds on endogenously expressed human ETA receptors in SK-N-MC cells was assessed by measuring the effects of the compounds on changes in cytoplasmic Ca^2+ ion signaling induced by an agonist of human ETA receptor using a fluorescence assay. The functional activity of the ETA receptor antagonistic effect was tested at Eurofins-Cerep SA according to current standard operating procedures.
• 1. Cells were suspended in Dulbecco's modified Eagle medium solution (DMEM, Invitrogen) supplemented with 1% FCSd and then distributed at a density of 5×10^4 cells/well in 384 plates (100 μL/well). • 2. Hank's Balanced Salt Solution (HBSS, Invitrogen) supplemented with 20 mM 4-(2-hydroxyethyl) piperazine-1-ethanesulfonic acid (Hepes, Invitrogen) (pH 7.4) was mixed with the fluorescent probe (Fluo4 NW, Invitrogen) and added to each well. Equilibrated with the cells for 60 minutes at 37° C. and then for 15 min at 22° C. • 3. The assay plate was placed in a microplate reader (CellLux, PerkinElmer). DMSO solution of the test compound and the positive control in appropriate concentration or HBSS buffer was added. After 5 minutes, 1 nM endothelin-1 or HBSS buffer (basal control) was added. Then the change in fluorescence intensity was measured. The fluorescence intensity is in proportion to the Ca^2+ ion concentration of the free cytosol. • 4. […] The standard positive control was BQ-123 and several concentrations were tested in each experiment and the data was analyzed using Prism to produce a concentration-response curve to calculate the IC50 values of the compounds. • 6.

human ETB receptors = target: T2, human ETB receptors (Homo sapiens, UniProt P24530); assay: In vitro antagonistic effect on human ETB receptors (Ca2+ fluorescence, transfected CHO cells); format: cell-based; details: 0.3 nM endothelin-1
T2 construct: host or cells: CHO cells
T2 sequence (P24530 27-442): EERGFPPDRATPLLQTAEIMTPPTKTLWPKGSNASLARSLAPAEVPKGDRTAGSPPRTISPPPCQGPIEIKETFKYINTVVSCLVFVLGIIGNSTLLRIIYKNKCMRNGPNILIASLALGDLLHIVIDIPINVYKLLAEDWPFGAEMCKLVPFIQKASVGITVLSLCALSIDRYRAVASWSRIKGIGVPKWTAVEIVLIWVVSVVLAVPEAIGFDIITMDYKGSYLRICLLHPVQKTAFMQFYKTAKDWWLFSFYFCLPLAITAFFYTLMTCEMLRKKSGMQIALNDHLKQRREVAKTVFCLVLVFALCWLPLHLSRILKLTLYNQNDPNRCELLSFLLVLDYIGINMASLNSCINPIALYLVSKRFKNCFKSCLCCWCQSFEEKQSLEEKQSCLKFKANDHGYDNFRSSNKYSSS
Description: The antagonist activities of the compounds on human ETB receptors expressed in transfected CHO cells were assessed by measuring the effects of the compounds on changes in cytoplasmic Ca^2+ ion signaling induced by an agonist of human ETB receptor using a fluorescence assay. The functional activity of the ETB receptor antagonistic effect was tested at Eurofins-Cerep SA according to current standard operating procedures.
• 1. Cells were suspended in DMEM buffer (Invitrogen) and then distributed at a density of 3×10^4 cells/well in 384 plates (100 μL/well). • 2. HBSS buffer (Invitrogen) supplemented with 20 mM Hepes (Invitrogen) (pH 7.4) was mixed with the fluorescent probe (Fluo4 Direct, Invitrogen) and added to each well. Equilibrated with the cells for 60 minutes at 37° C. and then for 15 minutes at 22° C. • 3. The assay plate was placed in a microplate reader (CellLux, PerkinElmer). DMSO solution of the test compound and the positive control or HBSS buffer in appropriate concentration was added. […] Then the change in fluorescence intensity was measured. The fluorescence intensity is in proportion to the Ca^2+ ion concentration of the free cytosol. • 4. […] The standard positive control was BQ-788 and several concentrations were tested in each experiment and the data was analyzed using Prism to produce a concentration-response curve to calculate the IC50 values of the compounds. […]

Row | IC50 (human ETA receptors) | IC50 (human ETB receptors) | SMILES
1 | 0.61 nM and 0.48 nM | – | CC(C)C[C@@H]1NC(=O)[C@@H](C(C)C)NC(=O)[C@@H]2CCCN2C(=O)[C@@H](CC(=O)O)NC(=O)[C@@H](Cc2c[nH]c3ccccc23)NC1=O [BQ-123, reference compound] (cyclo(L[dW][dD]P[dV]))
2 | – | 130 nM and 91 nM | CCCC[C@@H](NC(=O)[C@@H](Cc1cn(C(=O)OC)c2ccccc12)NC(=O)[C@H](CC(C)(C)C)NC(=O)N1[C@H](C)CCC[C@@H]1C)C(=O)O [BQ-788]
